“And” between values parts separate entries of the source, which are not always exact repeats. Identical values can stand only once. Like-named read-outs stand apart in the source and are kept apart here.
Key:
[1] = biological target: T1, GluN1/GluN2C (Rattus norvegicus, UniProt P35439+Q00961); assay: TEVC on Xenopus oocytes, GluN1/GluN2C diheteromers; type: cell-based; conditions: 1 µM trans-OptoNAM-3 (dark); listed as trans-OptoNAM-3
T1 construct: expressed in transfected cells; host or cells: Xenopus laevis oocytes (nuclear cDNA injection)
T1 sequence (Q00961 20-1237, other chains not shown): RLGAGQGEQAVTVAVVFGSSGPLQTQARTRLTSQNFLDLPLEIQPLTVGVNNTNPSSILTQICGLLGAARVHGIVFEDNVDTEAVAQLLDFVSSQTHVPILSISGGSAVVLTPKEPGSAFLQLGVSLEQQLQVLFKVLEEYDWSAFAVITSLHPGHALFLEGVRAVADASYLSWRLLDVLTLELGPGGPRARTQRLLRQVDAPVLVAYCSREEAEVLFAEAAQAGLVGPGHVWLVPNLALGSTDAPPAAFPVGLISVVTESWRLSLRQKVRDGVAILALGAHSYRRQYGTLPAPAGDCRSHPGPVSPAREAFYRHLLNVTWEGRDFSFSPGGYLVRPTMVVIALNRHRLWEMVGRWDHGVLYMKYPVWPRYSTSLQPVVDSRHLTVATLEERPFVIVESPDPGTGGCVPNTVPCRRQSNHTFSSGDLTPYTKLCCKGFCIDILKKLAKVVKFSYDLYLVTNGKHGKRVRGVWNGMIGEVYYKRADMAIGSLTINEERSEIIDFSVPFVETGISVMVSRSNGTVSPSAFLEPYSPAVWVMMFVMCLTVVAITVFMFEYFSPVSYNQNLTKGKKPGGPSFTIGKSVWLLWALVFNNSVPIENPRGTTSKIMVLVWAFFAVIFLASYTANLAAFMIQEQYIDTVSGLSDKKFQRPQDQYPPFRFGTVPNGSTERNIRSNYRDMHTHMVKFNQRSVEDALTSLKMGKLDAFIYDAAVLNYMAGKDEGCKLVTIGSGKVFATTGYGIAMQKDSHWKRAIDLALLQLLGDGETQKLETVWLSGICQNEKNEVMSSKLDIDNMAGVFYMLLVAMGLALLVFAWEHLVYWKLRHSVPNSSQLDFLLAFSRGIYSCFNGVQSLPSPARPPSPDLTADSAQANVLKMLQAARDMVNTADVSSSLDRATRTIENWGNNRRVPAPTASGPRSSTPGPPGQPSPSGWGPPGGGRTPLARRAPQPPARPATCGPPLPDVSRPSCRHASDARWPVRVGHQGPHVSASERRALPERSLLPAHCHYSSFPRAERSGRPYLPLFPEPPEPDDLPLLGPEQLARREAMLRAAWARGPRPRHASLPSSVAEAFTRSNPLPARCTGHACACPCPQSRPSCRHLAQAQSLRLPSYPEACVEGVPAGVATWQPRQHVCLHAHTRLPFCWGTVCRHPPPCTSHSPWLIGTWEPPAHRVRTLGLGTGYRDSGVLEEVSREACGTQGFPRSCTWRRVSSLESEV
Source text: NMDARs exist as multiple subtypes in the brain that are formed by the combination of two GluN1 and either two identical (diheteromers) or different (triheteromers) GluN2 (GluN2A-D) subunits.[1] We assessed the selectivity of trans-OptoNAM-3 (dark PSS) for the other NMDAR subtypes.
(§1) We used cDNA coding for rat GluN1–1a (named GluN1 herein) (GenBank: U08261.1), rat GluN2A (GenBank: D13211.1), mouse GluN2B (GenBank: D10651.2), rat GluA1 flop (GenBank: M36418.2), and rat Myc-GluA2(Q)-flip (GenBank: AF164344.1) cloned into pcDNA3-based expression plasmids. GluK2 (GenBank: Z11548.1) corresponds to the fully RNA-edited version.[80] The GluN2B-ΔNTD construct is from ref[45] and GluN2B–N615K is from ref[81]. Single mutants GluN2B-Q110G and GluN1-L135H were from ref[19]. The GluA2 cDNA contains a Myc tag ([…]) fused between the signal peptide and the N-terminus sequences, and the GluA2 subunit is […] for its Q/R/N site (GluA2(Q)) to allow permeation of homomeric GluA2 receptors.[2] cDNAs coding for rat GluN2C (GenBank: M91563.1) and GluN2D subunits (GenBank: L31611.1) were in prK5 plasmids.
Expression of recombinant NMDA receptors was obtained by oocyte nuclear coinjection of 37 nL of a mixture of cDNAs (at 30 ng/μL) coding for GluN1–1a and various GluN2 subunits (ratio 1:1). The protocol in ref[43] was followed for the expression of GluN1/GluN2A/GluN2B triheteromers. […]

[2] = biological target: T2, GluA2 AMPA receptors (Rattus norvegicus, UniProt P19491); assay: TEVC on Xenopus oocytes, GluA2 AMPA receptors; type: cell-based; set-up: Inhibition, individual values: scale not given here; conditions: for Inhibition, individual values: GluA2, single cells
T2 construct: expressed in transfected cells; host or cells: Xenopus laevis oocytes (mRNA injection)
T2 sequence (P19491 22-883 isoform P19491-2 limits assumed): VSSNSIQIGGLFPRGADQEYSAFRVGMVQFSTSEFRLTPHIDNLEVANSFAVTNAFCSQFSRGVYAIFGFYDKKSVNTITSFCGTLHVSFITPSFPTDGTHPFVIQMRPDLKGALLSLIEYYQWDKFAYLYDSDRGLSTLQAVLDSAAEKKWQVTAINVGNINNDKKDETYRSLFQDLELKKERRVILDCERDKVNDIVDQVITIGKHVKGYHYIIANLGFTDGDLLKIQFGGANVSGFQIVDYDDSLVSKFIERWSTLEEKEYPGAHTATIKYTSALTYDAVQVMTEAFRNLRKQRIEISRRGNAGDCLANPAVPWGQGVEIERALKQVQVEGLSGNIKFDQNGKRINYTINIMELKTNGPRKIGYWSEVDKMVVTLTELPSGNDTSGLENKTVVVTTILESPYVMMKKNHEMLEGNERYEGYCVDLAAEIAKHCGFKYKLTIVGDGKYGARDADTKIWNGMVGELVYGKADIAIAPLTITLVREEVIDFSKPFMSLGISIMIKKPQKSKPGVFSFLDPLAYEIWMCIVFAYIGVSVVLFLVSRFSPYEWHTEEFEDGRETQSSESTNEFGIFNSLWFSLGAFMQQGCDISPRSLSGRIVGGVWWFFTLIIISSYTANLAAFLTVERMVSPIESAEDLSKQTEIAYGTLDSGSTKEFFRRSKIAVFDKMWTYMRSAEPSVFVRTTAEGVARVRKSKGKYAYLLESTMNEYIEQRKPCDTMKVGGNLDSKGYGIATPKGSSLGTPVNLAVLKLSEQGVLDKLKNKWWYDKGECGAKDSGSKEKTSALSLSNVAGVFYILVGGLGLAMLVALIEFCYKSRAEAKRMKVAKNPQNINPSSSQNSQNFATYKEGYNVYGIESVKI
Source text: as §1
The expression of recombinant GluA1, GluA2(Q), and GluK2 receptors was obtained by oocyte injection of 50 nL of mRNAs (at 1 μg/μL). mRNAs were generated using the T7 (GluA1 and GluA2) and T3 (GluK2) mMessage mMachine transcription kits (Invitrogen) after cDNA linearization with the SacII restriction enzyme. The injected oocytes were stored in the same conditions as for NMDARs and used 72–96 h postinjection.
TEVC recordings were performed 1–3 days following injection. TEVC recordings were performed using an Oocyte Clamp amplifier OC-725 (Warner Instruments) and computer-controlled via a 1440A Digidata (Molecular Devices). Currents were sampled at 100 Hz and low-pass-filtered at 20 Hz using an 8-pole Bessel filter (900 Series, Frequency Devices Inc.). Data were collected with Clampfit 10.3. During the recording, the cells were continuously perfused with external recording Ringer solution at pH 7.3 (in mM: 100 NaCl, 0.3 BaCl2, 5 HEPES, and 2.5 KCl, pH adjustment to 7.3 by the addition of NaOH). The NMDA currents were induced by simultaneous application of L-glutamate and glycine (agonist solution) at saturating concentration (100 μM each), and DTPA (10 μM) to prevent receptor inhibition by ambient zinc (∼20 nM).[83] A control solution (100 μM glycine and 10 μM DTPA in Ringer pH 7.3) was used for washout of drug and test solutions. AMPA and kainate receptor currents were induced in the same conditions as NMDA currents (100 μM glutamate and glycine + 10 μM DTPA). Oocytes expressing GluK2 kainate receptors were treated with concanavalin A ([…], equivalent to 1.1 mg/mL) during 10 min before recording to decrease receptor desensitization. Unless notified, recordings were performed at a holding potential of −60 mV. All experiments were performed at room temperature. […]

- inhibition of GluN1/GluN2C [1]: 3.2% ± 0.5%
- inhibition at 10 µM ([2]; 10 µM OptoNAM-3 365 nm PSS, construct GluA2, read-out: Inhibition (%)): -4.9%
- inhibition at 10 µM ([2]; 10 µM OptoNAM-3 dark PSS (trans), construct GluA2, read-out: Inhibition (%)): -7.4%
- inhibition of GluA2 currents ([2]; 10 µM, dark PSS): no effect
- inhibition at 10 µM ([2]; 10 µM, dark PSS, read-out: inhibition of GluA2 currents): -7.4 ± 3.5%
Structure (SMILES): c1ccc(/N=N/c2ccc(CCNc3ccncc3)cc2)cc1 [OptoNAM-3, (E)-N-(4-(Phenyldiazenyl)phenethyl)pyridin-4-amine]
- Inhibition, individual values ([2]; 10 µM OptoNAM-3 dark PSS (trans) as headed, second block): -0.00171 and -0.04016 and -0.1082 and -0.02166 and -0.07608 and -0.04674
- Inhibition, individual values ([2]; 10 µM OptoNAM-3 dark PSS (trans), first block): -0.007761 and -0.14 and -0.08034 and -0.01769 and -0.2089 and 0.009857

— paper PMC11413854, “Reversible Control of Native GluN2B-Containing NMDA Receptors with Visible Light” (ACS Chemical Neuroscience, 2024)
